The values that follow come from publication PMC9560169, “The novel visual cycle inhibitor (±)-RPE65-61 protects retinal photoreceptors from light-induced degeneration” (PLoS ONE, 2022).

For this test, the target named is T1, RPE65 (Gallus gallus, UniProt Q9YGX2).
T1 construct: purified chicken recombinant RPE65
T1 sequence (Q9YGX2 1-533): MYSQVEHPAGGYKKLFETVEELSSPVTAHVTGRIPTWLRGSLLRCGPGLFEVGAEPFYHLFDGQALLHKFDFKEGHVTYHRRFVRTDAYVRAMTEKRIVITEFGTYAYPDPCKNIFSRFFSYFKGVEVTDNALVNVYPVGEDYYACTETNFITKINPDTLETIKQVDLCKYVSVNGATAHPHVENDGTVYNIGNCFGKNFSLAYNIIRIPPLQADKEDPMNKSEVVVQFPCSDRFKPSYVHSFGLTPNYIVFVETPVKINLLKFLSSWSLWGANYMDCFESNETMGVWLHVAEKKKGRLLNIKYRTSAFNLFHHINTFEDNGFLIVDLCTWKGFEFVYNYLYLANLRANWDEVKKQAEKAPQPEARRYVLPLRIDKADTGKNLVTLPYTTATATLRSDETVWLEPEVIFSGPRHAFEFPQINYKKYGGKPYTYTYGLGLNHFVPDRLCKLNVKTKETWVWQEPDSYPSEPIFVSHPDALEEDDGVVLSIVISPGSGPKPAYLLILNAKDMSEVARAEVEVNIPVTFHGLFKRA
The test is described as follows: liposome-based isomerohydrolase assay with all-trans-retinyl palmitate, HPLC of 11-cis-retinol, Lineweaver-Burk. The format is biochemical.

The term Ki denotes a dissociation constant, usually derived from enzyme kinetics or from competition with a known ligand.

For `N=S(=O)(CCN)c1cccc(OCC2CCCCC2)c1` (racemic) [(±)-9, (±)-(2-aminoethyl)(3-(cyclohexylmethoxy)phenyl)(imino)-ƛ^6-sulfanone], the Ki came out at 119 ± 11 nM.
